According to patent EP3521435A1, “A HIGH STRINGENCY SELECTION SYSTEM FOR PROTEIN EXPRESSION IN PROLINE-AUXOTROPHIC CELLS” (Bayer AG, priority 2018, dated 2019):

Tested on: CHO-K1 cells
Experiment: Flow cytometric analysis of GFP expression (MFI, high fluorescing cells) in stably selected cell populations
Format: cell-based, Chinese hamster
Details: for improvement of MFI as compared to Puromycin selected cultures / increase of the frequency of high fluorescing cells as compared to Puromycin selected cultures: DHP in proline-free medium
Description: To efficiently test the impact of different procedures on improving selection stringency, experimental testing in stable cell populations was performed. As test molecules, enhanced green fluorescent protein (GFP) as well as a human IgG1 were chosen. CHO-K1 cells adapted to growth in suspension in defined medium were obtained from SAFC and cultivated in EX-CELL CD CHO Fusion medium (SAFC 14365C). Custom-made EX-CELL CD CHO Fusion medium without L-Proline (Pro) and without L-Ornithine (Orn) ("proline-free medium") was obtained from SAFC. The expression vector system was based on modified versions of "CET 1019 AS-puro-SceI" and "CET 1019 AD-puro-SceI" for GFP and human IgG1, respectively, from Merck-Millipore, containing the Puromycin selection marker (Puromycin N-acetyl-transferase) known to exert a high selection stringency. To minimize variations in cell populations derived from using different transfections or different vectors, the first series of experiments were conducted using vectors into which a P5CS expression cassette was cloned upstream of a UCOE element, in addition to the Puromycin selection marker present downstream of a gene of interest. This way, it was possible to pool different transfections using the same vector to obtain a common starting point, and split the mixture according to different selection conditions, minimizing any variations that are not due to selection conditions themselves. Expression of long and short isoform of murine P5CS (Protein: Delta-1-pyrroline-5-carboxylate synthase; Gene: Aldh18a1; UniProtKB accession number: Q9Z110-1 & Q9Z110-2) was driven by a SV40 promoter. A SV40 polyadenylation sequence was used at the 3' end of the gene. More details can be found in Table 1. Typically, CHO cells were cultivated in EX-CELL CD CHO Fusion medium containing 6 mM GlutaMAX (Thermo Fisher, 35050-38) ("CD-Fusion medium") at 37 °C with 5% CO2. Cells were grown to logarithmic phase under shaking conditions for transfections. 1e7 cells/cuvette were transfected using nucleofection (Amaxa Nucleofector II, following the manufacturer's recommendations) with 5 µg of linearized DNA. After transfection, cells were taken up in 1 ml medium and transferred into 1 well of a 6 well microtiter plate (MTP) already containing 1 ml medium. The cells were incubated for 24 h without shaking, after which 9 ml medium were added and cells were washed (either in standard or proline-free medium). Multiple transfections were pooled, if applicable. Cells were adjusted to 2e5 viable cells/ml and 10 ml were transferred to T-25 flasks. Reference cell populations were selected using 10 µg/ml Puromycin in CD-Fusion medium. For P5CS-based selection, EX-CELL CD CHO Fusion medium (custom-made, SAFC) containing 6 mM GlutaMAX without proline and without ornithine was used ("proline-free" or "CD-Fusion w/o Pro" medium), with or without additional selection pressure.
Cell viability of the different populations was monitored over time. As soon as cell populations appeared to recover from selection pressure, cells were transferred to Shake Flask or TubeSpins for expansion in suspension under shaking conditions. Subsequently, stable cell populations transfected with IgG were seeded at 2e5 viable cells/ml for batch fermentation without selection pressure (i.e. standard CD-Fusion medium containing proline and no other selective agents). The cells were cultivated for 5-10 days, viable cell densities and productivity were monitored over time. IgG titers were determined using Poros A-HPLC method. Typically, final batch titers were recorded at a time point at which majority of cultures had around 70% viability. Stable cell populations transfected with GFP vector were subjected to analysis by flow cytometry using Guava easyCyte 8HT Benchtop Flow Cytometer (Millipore). 250 µl of cell culture were transferred to 96 MTP and washed with PBS. Dead cells were excluded from analysis using propidium iodide (PI). […]

[1] = Table 11, day 19 post-transfection, pJF1555, CD-Fusion w/o Pro + 0.2 mM DHP
[2] = Table 13, day 19 post-transfection, pJF1555, CD-Fusion w/o Pro + 0.05 mM DHP
[3] = Table 13, day 19 post-transfection, pJF1555, CD-Fusion w/o Pro + 0.1 mM DHP
[4] = Table 13, day 19 post-transfection, pJF1555, CD-Fusion w/o Pro + 0.2 mM DHP
[5] = Table 13, day 19 post-transfection, pJF1555, CD-Fusion w/o Pro + 0.4 mM DHP
[6] = day 22 post-transfection, pJF2055, CD-Fusion w/o Pro + 0.02 mM DHP
[7] = day 22 post-transfection, pJF2055, CD-Fusion w/o Pro + 0.03 mM DHP
[8] = day 22 post-transfection, pJF2055, CD-Fusion w/o Pro + 0.04 mM DHP
[9] = day 22 post-transfection, pJF2055, CD-Fusion w/o Pro + 0.06 mM DHP
[10] = day 22 post-transfection, pJF2055, CD-Fusion w/o Pro + 0.07 mM DHP
[11] = day 22 post-transfection, pJF2055, CD-Fusion w/o Pro + 0.08 mM DHP
[12] = day 22 post-transfection, pJF2303, CD-Fusion w/o Pro + 0.02 mM DHP
[13] = day 22 post-transfection, pJF2303, CD-Fusion w/o Pro + 0.04 mM DHP
[14] = day 22 post-transfection, pJF2303, CD-Fusion w/o Pro + 0.06 mM DHP
[15] = day 22 post-transfection, pJF2303, CD-Fusion w/o Pro + 0.08 mM DHP
[16] = day 22 post-transfection, pJF2303, CD-Fusion w/o Pro + 0.2 mM DHP
[17] = day 22 post-transfection, pJF2303, CD-Fusion w/o Pro + 0.3 mM DHP
[18] = day 22 post-transfection, pJF2303, CD-Fusion w/o Pro + 0.4 mM DHP
[19] = day 22 post-transfection, pJF2303, CD-Fusion w/o Pro + 0.5 mM DHP
[20] = day 29 post-transfection, pJF2460, CD-Fusion w/o Pro + 0.01 mM DHP
[21] = day 29 post-transfection, pJF2460, CD-Fusion w/o Pro + 0.03 mM DHP

O=C(O)[C@@H]1C=CCN1 [DHP, 3,4-Dehydro-L-Proline]
increase of the frequency of high fluorescing cells (0.4 mM DHP, pJF1555, Table 13): 8.7-12.6 fold
Frequency of high fluorescing cells [1]: 5.8%
Median Fluorescence Intensity (MFI) (yellow) [1]: 17880
Frequency of high fluorescing cells [2]: 1.7%
Median Fluorescence Intensity (MFI) (yellow) [2]: 7599
Frequency of high fluorescing cells [3]: 5.6%
Median Fluorescence Intensity (MFI) (yellow) [3]: 14267
Frequency of high fluorescing cells [4]: 5.8%
Median Fluorescence Intensity (MFI) (yellow) [4]: 13748
Frequency of high fluorescing cells [5]: 13.0%
Median Fluorescence Intensity (MFI) (yellow) [5]: 19806
sensitivity to DHP treatment of cultures transfected with pJF2055 relative to pJF2303 (concentration ranges for DHP giving improvement): about 10 fold
Frequency of high fluorescing cells [6]: 17.3%
Median Fluorescence Intensity (MFI) (yellow) [6]: 24032
Frequency of high fluorescing cells [7]: 18.5%
Median Fluorescence Intensity (MFI) (yellow) [7]: 22607
Frequency of high fluorescing cells [8]: 31.3%
Median Fluorescence Intensity (MFI) (yellow) [8]: 29703
Frequency of high fluorescing cells [9]: 6.9%
Median Fluorescence Intensity (MFI) (yellow) [9]: 15210
Frequency of high fluorescing cells [10]: 8.7%
Median Fluorescence Intensity (MFI) (yellow) [10]: 12393
Frequency of high fluorescing cells [11]: 9.3%
Median Fluorescence Intensity (MFI) (yellow) [11]: 9617
Frequency of high fluorescing cells [12]: 3.3%
Median Fluorescence Intensity (MFI) (yellow) [12]: 12080
Frequency of high fluorescing cells [13]: 5.7%
Median Fluorescence Intensity (MFI) (yellow) [13]: 15503
Frequency of high fluorescing cells [14]: 3.2%
Median Fluorescence Intensity (MFI) (yellow) [14]: 12536
Frequency of high fluorescing cells [15]: 3.7%
Median Fluorescence Intensity (MFI) (yellow) [15]: 14603
Frequency of high fluorescing cells [16]: 14.7%
Median Fluorescence Intensity (MFI) (yellow) [16]: 19163
Frequency of high fluorescing cells [17]: 17.4%
Median Fluorescence Intensity (MFI) (yellow) [17]: 22030
Frequency of high fluorescing cells [18]: 24.5%
Median Fluorescence Intensity (MFI) (yellow) [18]: 26155
Frequency of high fluorescing cells [19]: 19.6%
Median Fluorescence Intensity (MFI) (yellow) [19]: 23616
Frequency of high fluorescing cells [20]: 15.3%
Median Fluorescence Intensity (MFI) (yellow) [20]: 19951
Frequency of high fluorescing cells [21]: 43.6%
Median Fluorescence Intensity (MFI) (yellow) [21]: 31838
improvement of MFI as compared to Puromycin selected cultures (pJF2055, Table 26): up to 2.6 fold
increase of the frequency of high fluorescing cells as compared to Puromycin selected cultures (pJF2055, Table 26): 7.4-12.7 fold
improvement of MFI as compared to Puromycin selected cultures (pJF2303, Table 26): up to 2.3 fold
increase of the frequency of high fluorescing cells as compared to Puromycin selected cultures (pJF2303, Table 26): 5.8-9.9 fold
improvement of MFI as compared to Puromycin selected cultures (pJF2460, Table 28): up to 2.8 fold
increase of the frequency of high fluorescing cells as compared to Puromycin selected cultures (pJF2460, Table 28): up to 19 fold
